Test [1] concerns the target [Pyruvate dehydrogenase (acetyl-transferring)] kinase isozyme 1, mitochondrial (Homo sapiens, UniProt Q15118). Kind of test: Selectivity interaction (ProQinase) EUB0000171b PDK1.
Test [2] has as its target Ribosomal protein S6 kinase alpha-2 (Homo sapiens) (UniProt Q15349). Kind of test: Selectivity interaction (ProQinase) EUB0000171b RPS6KA2.
Test [3] concerns the target T1, Activin receptor type-1 (Homo sapiens) (UniProt Q04771).
T1 sequence (whole entry): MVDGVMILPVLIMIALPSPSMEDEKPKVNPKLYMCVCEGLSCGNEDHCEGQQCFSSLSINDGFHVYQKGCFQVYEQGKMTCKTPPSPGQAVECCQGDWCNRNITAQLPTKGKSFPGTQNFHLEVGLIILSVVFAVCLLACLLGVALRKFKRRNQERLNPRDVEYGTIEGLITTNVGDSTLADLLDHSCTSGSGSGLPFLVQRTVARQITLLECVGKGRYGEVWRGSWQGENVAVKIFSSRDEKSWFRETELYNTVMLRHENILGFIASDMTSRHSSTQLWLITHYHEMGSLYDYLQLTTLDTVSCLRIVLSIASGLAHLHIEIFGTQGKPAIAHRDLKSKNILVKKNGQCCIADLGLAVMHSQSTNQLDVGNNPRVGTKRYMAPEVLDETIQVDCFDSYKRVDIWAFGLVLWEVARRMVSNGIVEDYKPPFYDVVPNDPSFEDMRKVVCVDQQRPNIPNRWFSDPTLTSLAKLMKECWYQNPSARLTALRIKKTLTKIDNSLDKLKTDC
Kind of test: Selectivity interaction (KinomeScan (DiscoverX)) EUB0000092b ACVR1. To be noted: at 10 µM.

For test [4], the target named is T2, Serine/threonine-protein kinase BRSK1 (Homo sapiens) (UniProt Q8TDC3).
T2 sequence (whole entry): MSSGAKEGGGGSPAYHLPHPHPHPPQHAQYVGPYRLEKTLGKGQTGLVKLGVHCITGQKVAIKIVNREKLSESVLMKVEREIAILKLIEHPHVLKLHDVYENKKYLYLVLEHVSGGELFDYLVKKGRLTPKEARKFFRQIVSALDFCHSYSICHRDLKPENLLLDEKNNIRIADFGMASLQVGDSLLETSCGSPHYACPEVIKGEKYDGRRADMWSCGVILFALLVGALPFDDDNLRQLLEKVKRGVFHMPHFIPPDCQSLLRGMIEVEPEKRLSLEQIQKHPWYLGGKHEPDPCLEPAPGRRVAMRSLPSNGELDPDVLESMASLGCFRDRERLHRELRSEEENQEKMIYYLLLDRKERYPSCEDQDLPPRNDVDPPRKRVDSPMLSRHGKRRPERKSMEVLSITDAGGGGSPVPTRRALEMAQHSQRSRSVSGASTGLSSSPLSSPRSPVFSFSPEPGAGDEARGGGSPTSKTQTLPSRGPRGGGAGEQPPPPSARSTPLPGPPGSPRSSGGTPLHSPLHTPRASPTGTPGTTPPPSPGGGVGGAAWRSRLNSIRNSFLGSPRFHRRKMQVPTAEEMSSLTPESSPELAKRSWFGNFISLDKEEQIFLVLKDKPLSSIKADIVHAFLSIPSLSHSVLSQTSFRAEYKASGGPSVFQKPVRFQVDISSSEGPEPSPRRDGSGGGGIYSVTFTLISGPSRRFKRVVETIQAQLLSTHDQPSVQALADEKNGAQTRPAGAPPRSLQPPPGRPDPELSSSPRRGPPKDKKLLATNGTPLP
Kind of test: Selectivity interaction (KinomeScan (DiscoverX)) EUB0001049a BRSK1. To be noted: at 1 µM.

Test [5] has as its target Atypical kinase COQ8A, mitochondrial (Homo sapiens, UniProt Q8NI60). Kind of test: Selectivity interaction (KinomeScan (DiscoverX)) EUB0000655a ADCK3. To be noted: at 10 µM.
Test [6] has as its target T3, Serine/threonine-protein kinase D1 (Homo sapiens) (UniProt Q15139).
T3 sequence (whole entry): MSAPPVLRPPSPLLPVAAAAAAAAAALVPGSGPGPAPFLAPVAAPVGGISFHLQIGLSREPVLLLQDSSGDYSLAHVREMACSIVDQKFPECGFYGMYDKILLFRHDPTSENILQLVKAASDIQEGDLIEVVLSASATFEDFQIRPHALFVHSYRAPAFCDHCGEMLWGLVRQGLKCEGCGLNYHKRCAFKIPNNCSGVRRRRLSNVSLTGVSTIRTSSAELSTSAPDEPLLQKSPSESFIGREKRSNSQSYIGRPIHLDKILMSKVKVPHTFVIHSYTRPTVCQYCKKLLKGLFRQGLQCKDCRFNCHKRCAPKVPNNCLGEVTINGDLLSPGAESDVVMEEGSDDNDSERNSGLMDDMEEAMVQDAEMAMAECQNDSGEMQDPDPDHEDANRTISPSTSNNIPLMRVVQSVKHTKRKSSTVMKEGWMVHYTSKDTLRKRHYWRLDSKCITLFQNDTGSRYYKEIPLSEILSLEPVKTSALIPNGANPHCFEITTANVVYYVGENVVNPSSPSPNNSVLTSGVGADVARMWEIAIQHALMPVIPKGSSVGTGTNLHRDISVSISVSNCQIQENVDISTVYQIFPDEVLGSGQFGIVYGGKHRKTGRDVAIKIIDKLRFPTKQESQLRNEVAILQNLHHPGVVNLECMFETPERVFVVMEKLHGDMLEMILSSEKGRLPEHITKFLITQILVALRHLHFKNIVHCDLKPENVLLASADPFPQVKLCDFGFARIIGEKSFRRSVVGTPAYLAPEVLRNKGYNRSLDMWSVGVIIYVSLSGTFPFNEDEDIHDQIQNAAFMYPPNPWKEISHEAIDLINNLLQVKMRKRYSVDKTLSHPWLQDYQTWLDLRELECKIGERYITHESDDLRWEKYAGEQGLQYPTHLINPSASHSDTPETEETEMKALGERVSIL
Kind of test: Selectivity interaction (KinomeScan (DiscoverX)) EUB0000607a PRKD1. To be noted: at 10 µM.

The target in test [7] is Mitogen-activated protein kinase kinase kinase kinase 5 (Homo sapiens) (UniProt Q9Y4K4). To be noted: at 10 µM.
Chain of Mitogen-activated protein kinase kinase kinase kinase 5 (Homo sapiens) (Q9Y4K4 whole entry, looked up): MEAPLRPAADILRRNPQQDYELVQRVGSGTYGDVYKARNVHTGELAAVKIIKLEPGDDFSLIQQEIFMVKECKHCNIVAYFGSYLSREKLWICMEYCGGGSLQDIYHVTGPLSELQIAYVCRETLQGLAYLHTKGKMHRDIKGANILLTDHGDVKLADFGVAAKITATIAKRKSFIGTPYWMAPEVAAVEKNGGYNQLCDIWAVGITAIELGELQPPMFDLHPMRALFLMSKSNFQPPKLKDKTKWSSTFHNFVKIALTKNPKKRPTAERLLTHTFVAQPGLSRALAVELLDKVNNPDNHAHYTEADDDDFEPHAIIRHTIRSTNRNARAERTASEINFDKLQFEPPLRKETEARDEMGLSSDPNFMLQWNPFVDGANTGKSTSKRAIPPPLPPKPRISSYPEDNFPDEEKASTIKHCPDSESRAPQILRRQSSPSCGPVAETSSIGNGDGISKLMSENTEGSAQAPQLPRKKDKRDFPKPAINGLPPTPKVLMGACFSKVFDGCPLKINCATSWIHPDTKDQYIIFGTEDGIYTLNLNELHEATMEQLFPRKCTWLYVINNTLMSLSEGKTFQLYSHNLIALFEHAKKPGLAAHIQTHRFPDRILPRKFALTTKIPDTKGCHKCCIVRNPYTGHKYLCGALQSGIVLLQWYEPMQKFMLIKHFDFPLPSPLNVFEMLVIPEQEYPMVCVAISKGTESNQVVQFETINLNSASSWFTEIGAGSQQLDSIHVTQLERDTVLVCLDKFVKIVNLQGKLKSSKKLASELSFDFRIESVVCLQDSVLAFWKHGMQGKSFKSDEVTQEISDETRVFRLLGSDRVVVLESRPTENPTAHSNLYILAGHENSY
The target of test [8] is Mitogen-activated protein kinase kinase kinase 4 (Homo sapiens) (UniProt Q9Y6R4). Kind of test: Selectivity interaction (Kinase panel (KiNativ target engagement assay in Jurkat cells)) EUB0001635a MAP3K4. The format is cell-based. To be noted: Selectivity number of off-targets 0.0, Selectivity number of targets 233.0, Source Knowledge https://www.sciencedirect.com/science/article/pii/S2451945619300674?via%3Dihub, at 1 µM.
Chain of Mitogen-activated protein kinase kinase kinase 4 (Homo sapiens) (Q9Y6R4 whole entry): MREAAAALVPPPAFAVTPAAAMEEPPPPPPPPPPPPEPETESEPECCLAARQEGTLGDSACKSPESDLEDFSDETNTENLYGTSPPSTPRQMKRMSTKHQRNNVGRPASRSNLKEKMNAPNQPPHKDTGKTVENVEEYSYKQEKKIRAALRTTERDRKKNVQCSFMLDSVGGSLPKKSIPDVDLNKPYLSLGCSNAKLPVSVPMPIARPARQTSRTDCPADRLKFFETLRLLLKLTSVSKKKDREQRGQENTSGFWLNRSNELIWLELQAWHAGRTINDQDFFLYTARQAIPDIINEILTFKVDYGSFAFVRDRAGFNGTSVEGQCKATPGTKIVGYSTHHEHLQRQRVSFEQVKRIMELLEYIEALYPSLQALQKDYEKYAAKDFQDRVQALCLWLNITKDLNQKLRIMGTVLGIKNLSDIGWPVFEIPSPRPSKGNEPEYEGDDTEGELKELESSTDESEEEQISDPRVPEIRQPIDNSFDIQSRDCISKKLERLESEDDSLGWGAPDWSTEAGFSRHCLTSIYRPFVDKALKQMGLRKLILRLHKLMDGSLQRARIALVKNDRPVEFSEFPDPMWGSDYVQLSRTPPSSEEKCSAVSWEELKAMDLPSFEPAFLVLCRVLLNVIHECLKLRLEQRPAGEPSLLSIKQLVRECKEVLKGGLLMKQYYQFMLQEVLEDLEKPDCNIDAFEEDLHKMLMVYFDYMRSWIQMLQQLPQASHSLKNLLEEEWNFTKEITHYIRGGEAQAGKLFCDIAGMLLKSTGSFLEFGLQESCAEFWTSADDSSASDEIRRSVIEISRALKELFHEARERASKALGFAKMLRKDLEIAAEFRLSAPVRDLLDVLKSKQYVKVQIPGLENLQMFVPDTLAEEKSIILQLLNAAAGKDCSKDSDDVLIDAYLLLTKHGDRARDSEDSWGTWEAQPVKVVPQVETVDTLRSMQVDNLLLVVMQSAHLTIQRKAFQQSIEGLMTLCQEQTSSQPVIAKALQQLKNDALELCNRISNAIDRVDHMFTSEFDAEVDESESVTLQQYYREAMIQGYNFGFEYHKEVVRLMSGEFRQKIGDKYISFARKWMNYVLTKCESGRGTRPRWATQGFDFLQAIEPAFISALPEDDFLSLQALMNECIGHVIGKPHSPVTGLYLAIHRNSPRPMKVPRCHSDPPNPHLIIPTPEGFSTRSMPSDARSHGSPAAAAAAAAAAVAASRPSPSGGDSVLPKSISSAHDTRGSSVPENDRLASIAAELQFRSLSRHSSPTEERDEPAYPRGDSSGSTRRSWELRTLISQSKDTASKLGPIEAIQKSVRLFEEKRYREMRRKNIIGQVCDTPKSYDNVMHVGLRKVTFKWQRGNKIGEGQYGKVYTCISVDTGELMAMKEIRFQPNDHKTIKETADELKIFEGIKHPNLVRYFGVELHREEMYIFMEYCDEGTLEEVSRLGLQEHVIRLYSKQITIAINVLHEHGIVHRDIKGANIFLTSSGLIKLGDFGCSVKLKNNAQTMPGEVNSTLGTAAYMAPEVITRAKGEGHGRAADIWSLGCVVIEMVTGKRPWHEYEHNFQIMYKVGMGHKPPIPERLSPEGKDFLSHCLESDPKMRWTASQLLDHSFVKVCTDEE

Chain of Ribosomal protein S6 kinase alpha-2 (Homo sapiens) (Q15349 whole entry): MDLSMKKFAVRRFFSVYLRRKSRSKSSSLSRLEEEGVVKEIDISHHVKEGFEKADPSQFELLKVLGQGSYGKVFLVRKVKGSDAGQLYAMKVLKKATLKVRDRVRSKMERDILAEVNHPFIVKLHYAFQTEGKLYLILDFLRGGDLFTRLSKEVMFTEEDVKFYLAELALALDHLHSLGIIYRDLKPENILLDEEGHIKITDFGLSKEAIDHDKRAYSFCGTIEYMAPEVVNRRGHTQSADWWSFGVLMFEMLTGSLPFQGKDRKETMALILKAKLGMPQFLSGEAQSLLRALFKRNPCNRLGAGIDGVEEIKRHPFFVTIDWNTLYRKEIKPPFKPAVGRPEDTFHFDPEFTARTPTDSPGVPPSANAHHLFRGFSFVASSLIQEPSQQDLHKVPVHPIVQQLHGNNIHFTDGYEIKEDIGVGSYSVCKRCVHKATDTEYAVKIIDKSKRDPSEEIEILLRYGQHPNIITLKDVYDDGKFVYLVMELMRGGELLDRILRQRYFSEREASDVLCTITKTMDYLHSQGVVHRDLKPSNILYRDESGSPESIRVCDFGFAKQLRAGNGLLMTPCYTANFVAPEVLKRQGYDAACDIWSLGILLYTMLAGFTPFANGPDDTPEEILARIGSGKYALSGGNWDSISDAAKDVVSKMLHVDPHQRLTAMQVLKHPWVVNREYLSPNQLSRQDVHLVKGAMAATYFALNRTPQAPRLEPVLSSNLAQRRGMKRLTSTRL
Chain of Atypical kinase COQ8A, mitochondrial (Q8NI60 163-647 limits assumed): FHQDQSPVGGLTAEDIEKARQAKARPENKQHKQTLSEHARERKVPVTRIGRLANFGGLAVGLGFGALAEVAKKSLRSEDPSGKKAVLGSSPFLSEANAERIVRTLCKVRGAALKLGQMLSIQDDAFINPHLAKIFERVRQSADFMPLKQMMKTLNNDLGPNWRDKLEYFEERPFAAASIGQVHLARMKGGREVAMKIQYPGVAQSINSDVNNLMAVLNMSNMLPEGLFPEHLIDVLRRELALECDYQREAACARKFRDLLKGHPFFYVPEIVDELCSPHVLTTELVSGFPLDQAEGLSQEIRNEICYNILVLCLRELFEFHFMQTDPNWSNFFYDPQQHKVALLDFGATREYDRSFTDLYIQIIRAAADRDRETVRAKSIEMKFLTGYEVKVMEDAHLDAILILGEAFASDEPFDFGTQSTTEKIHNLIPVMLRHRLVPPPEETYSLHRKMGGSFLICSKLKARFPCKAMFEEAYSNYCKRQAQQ

Consider `C=CC(=O)Nc1cccc(C(=O)Nc2ccc(Nc3cc(-c4[nH]c(SC)nc4C)ccn3)cc2)c1`, for which the % of control in test [1] (at 1 µM) was determined as 74%; in test [1] (at 5 µM), 39%; in test [2] (at 1 µM) it was 88%; in test [2] (at 5 µM), 69%.

`CCC(=O)N1CCN(c2ccc(-n3c(=O)ccc4cnc5ccc(-c6cnc7ccccc7c6)cc5c43)cc2C(F)(F)F)CC1` yielded a % of control in test [3] of 28%.

In test [4], `COc1cc(Nc2nc(C)cc(-c3cnn4nc(OC)ccc34)n2)cc(C(F)(F)F)c1` came in with a % of control of 86%.

Compound `CN(C)CCOc1ccc(-c2nc(-c3ccncc3)c(-c3ccc4c(c3)CC/C4=N\O)[nH]2)cc1` yielded a % of control in test [5] of 7%.

In the case of `CNC(=O)Nc1ccc(-c2nc(N3CC4CCC(C3)O4)c3cnn(C4CCC5(CC4)OCCO5)c3n2)cc1`, the % of control in test [6] came to 100%.

As for `COCC(=O)NC/C=C/c1ccc2ncnc(Nc3ccc(Oc4ccc(C)nc4)c(C)c3)c2c1` [CP-724714], the % of control in test [7] worked out at 86%.

For `C=CC(=O)Nc1ccc(C(=O)Nc2[nH]nc3c2CN(C(=O)N[C@H](CN(C)C)c2ccccc2)C3(C)C)cc1`, in test [8], the % of engagement was -2.6%.

The values are drawn from ChEMBL document CHEMBL5465560, “Selectivity Literature for EUbOPEN Chemogenomic Library” (2024).
